Source: patent publication US11753411B2, “Substituted pyrazolo[1,5-a]pyrimidines as TYK2 pseudokinase ligands” (Ventyx Biosciences, Inc., priority 2019, dated 2023)
pIC50: −log10 of the molar value.

Test system: IFN-a/Jak1 Tyk2
Assay: Co-stimulation assay in lysed whole blood: IFNa (JAK1/TYK2) stimulated STAT1 phosphorylation
Format: cell-based
Details: Homo sapiens, 20 min, 100 ng/mL IFNa (with 10 ng/mL GM-CSF), pSTAT by flow cytometry
Procedure, shortened: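 Lysed human whole blood (RBC-lysed, resuspended in cRPMI) pre-incubated with compound 1 h at 37 °C, then stimulated 20 min with IFNa 100 ng/mL plus GM-CSF 10 ng/mL (final). Fixed, permeabilised, stained for pSTAT1 (PE) and pSTAT5 (AF488); flow cytometry read-out, ≥5,000–10,000 cells acquired.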

SMILES | pIC50
CNc1cc(Nc2cc(F)cc3c2OCCO3)nc2c(NC(=O)N[C@@H]3C[C@@H]3F)cnn12 [Compound 5, 1-(5-((7-fluoro-2,3-dihydrobenzo[b][1,4]dioxin-5-yl)amino)-7-(methylamino)pyrazolo[1,5-a]pyrimidin-3-yl)-3-((1R,2S)-2-fluorocyclopropyl)urea] | > 6.00
[2H]C([2H])([2H])Nc1cc(-c2cn(C3CCOC3)c3ncccc23)nc2c(NC(=O)NC)cnn12 (centres unmarked) [Compound 75, 1-methyl-3-(7-((methyl-d3)amino)-5-(1-(tetrahydrofuran-3-yl)-1H-pyrrolo[2,3-b]pyridin-3-yl)pyrazolo[1,5-a]pyrimidin-3-yl)urea] | > 6.00
CNc1cc2nc3c(cnn13)NC(=O)NCCOc1cccc(c1)N2 [Compound 22, (1^3E,1^4E)-1^7-(methylamino)-4-oxa-2,7,9-triaza-1(5,3)-pyrazolo[1,5-a]pyrimidina-3(1,3)-benzenacyclononaphan-8-one] | 5.00 to 6.00
CNc1cc(Nc2cccc3occc23)nc2c(NC(=O)N[C@@H]3C[C@@H]3F)cnn12 [Compound 50, 1-(5-(benzofuran-4-ylamino)-7-(methylamino)pyrazolo[1,5-a]pyrimidin-3-yl)-3-((1R,2S)-2-fluorocyclopropyl)urea] | > 6.00
CNC(=O)Nc1cnn2c(NC)cc(Nc3cc(OC)cc(OC)c3)nc12 [Compound 70, 1-(5-((3,5-dimethoxyphenyl)amino)-7-(methylamino)pyrazolo[1,5-a]pyrimidin-3-yl)-3-methylurea] | > 6.00
[2H]C1([2H])Oc2cc(F)cc(Nc3cc(NC)n4ncc(NC(=O)N[C@@H]5C[C@@H]5F)c4n3)c2OC1([2H])[2H] [Compound 182, 1-(5-((7-fluoro-2,3-dihydrobenzo[b][1,4]dioxin-5-yl-2,2,3,3-d4)amino)-7-(methylamino)pyrazolo[1,5-a]pyrimidin-3-yl)-3-((1R,2S)-2-fluorocyclopropyl)urea] | > 6.00

Same assay, conditions: lysed human whole blood; 100 ng/mL IFNa (with 10 ng/mL GM-CSF), 20 minutes; pSTAT by flow cytometry

SMILES | pIC50
CNc1cc(Nc2c(F)ccc3c2OCCO3)nc2c(NC(=O)NCC#N)cnn12 [Compound 174, 1-(cyanomethyl)-3-(5-((6-fluoro-2,3-dihydrobenzo[b][1,4]dioxin-5-yl)amino)-7-(methylamino)pyrazolo[1,5-a]pyrimidin-3-yl)urea] | ≤ 5.00

Test system: not listed separately
Assay: Human liver microsome stability assay
Format: in vitro ADME
Details: 0.5 mg/mL human liver microsomes, 37° C., pH 7.4; urea versus corresponding amide
Experimental: The microsome stability assay was carried out in 96-well microtiter plates at 37° C. Reaction mixtures (25 μL) contained a final concentration of 1 µM test compound, 0.5 mg/mL human liver microsomes protein, and 1 mM NADPH and/or 1 mM UDPGA (with alamethicin) in 100 mM potassium phosphate, pH 7.4 buffer with 3 mM MgCl2. At each of the time points (for example, 0, 15, 30, and 60 minutes), 150 μL of quench solution (100% acetonitrile with 0.1% formic acid) with internal standard was transferred to each well. Besides the zero minute controls, mixtures containing the same components except the NADPH were also prepared as the negative control. Verapamil was included as a positive control to verify assay performance. Plates were sealed, vortexed, and centrifuged at 4° C. for 15 minutes at 4000 rpm. The supernatant was transferred to fresh plates for LC/MS/MS analysis. Comparison data for microsome stability of urea compounds described herein versus the corresponding amide compounds are shown in Table 1.

SMILES | half-life
CNc1cc(Nc2cc(F)cc3c2OCCO3)nc2c(C(=O)N[C@@H]3C[C@@H]3F)cnn12 [drawing 280, reference compound] | 1 h
CNC(=O)Nc1cnn2c(NC)cc(Nc3cc(F)cc4c3OCCO4)nc12 [drawing 283] | > 2 h
CNc1cc(Nc2cccc3c2OCCO3)nc2c(NC(=O)NC3CC3)cnn12 [drawing 277] | > 2 h
CNc1cc(Nc2cccc3c2OCCO3)nc2c(C(=O)NC3CC3)cnn12 [drawing 278, reference compound] | 0.317 h
CNc1cc(Nc2cccc3c2OCCO3)nc2c(NC(=O)NC3CC(O)C3)cnn12 (centres unmarked) [drawing 281] | > 2 h
CNc1cc(Nc2cccc3c2OCCO3)nc2c(C(=O)NC3CC(O)C3)cnn12 (centres unmarked) [reference compound] | 0.3 h
CNC(=O)c1cnn2c(NC)cc(Nc3cc(F)cc4c3OCCO4)nc12 [reference compound] | < 0.833 h
CNc1cc(Nc2cc(F)cc3c2OCCO3)nc2c(NC(=O)N[C@@H]3C[C@@H]3F)cnn12 [drawing 279] | > 2 h

Test system: not listed separately
Assay: Rat pharmacokinetics (PK)
Format: in vivo
Details: rat plasma; IV group and PO group, route of the Cmax not given; urea versus corresponding amide
Experimental: Rat PK experiments were performed with an IV group and PO group included, with 3 rats per group. The formulation was solution for IV group and either solution or suspension formulation for the oral group(s). Plasma samples were harvested with K2EDTA as anticoagulant at 0.08, 0.25, 0.5, 1, 2, 4, 8, 12 and 24 hours for the IV group and at 0.25, 0.5, 1, 2, 4, 6, 8, 12 and 24 hours for the PO group, and analyzed by fit for purpose LC-MS/MS method. Non-compartmental analysis module in Phoenix WinNonlin® (Version 8.0) was used to assess the pharmacokinetic parameters. Maximum concentration (Cmax) were taken from the observed values.

SMILES | Cmax
CNc1cc(Nc2cccc3c2OCCO3)nc2c(NC(=O)NC3CCC3)cnn12 [drawing 289] | 1,800 ng/mL
CNc1cc(Nc2cccc3c2OCCO3)nc2c(NC(=O)NC3CCC3)cnn12 [drawing 287] | 5,000 ng/mL

Same assay, conditions: rat, plasma, IV group and PO group, route of the Cmax not given, urea versus corresponding amide, read-out: Cmax

SMILES | Cmax
CNC(=O)Nc1cnn2c(NC)cc(Nc3cc(C)cc(C)c3)nc12 [drawing 291] | 915 ng/mL
CNc1cc(Nc2cccc3c2OCCO3)nc2c(C(=O)N[C@@H]3C[C@@H]3F)cnn12 [reference compound] | 400 ng/mL
CNc1cc(Nc2cccc3c2OCCO3)nc2c(C(=O)NC3CC3)cnn12 [drawing 290, reference compound] | 400 ng/mL
CNC(=O)c1cnn2c(NC)cc(Nc3cc(C)cc(C)c3)nc12 [reference compound] | 200 ng/mL
CNc1cc(Nc2cccc3c2OCCO3)nc2c(C(=O)NC3CCC3)cnn12 [reference compound] | 1900 ng/mL
CNc1cc(Nc2cccc3c2OCCO3)nc2c(NC(=O)N[C@@H]3C[C@@H]3F)cnn12 [drawing 285] | 1690 ng/mL

Test system: not listed separately
Assay: Hepatocyte stability
Format: in vitro ADME, human
Details: hepatocytes; statement in words
Experimental: Metabolic stability of compounds can be evaluated using human, rat, mouse, or other animal hepatocytes to predict intrinsic clearance. Human LiverPool™ 20-donor and animal cryopreserved hepatocytes were obtained from BioreclamationIVT.
Cryopreserved hepatocytes were removed from a liquid nitrogen tank and thawed in a 37° C. water bath. As soon as the cells pull away from the vial wall, they were decanted into 48 mL of warm HT medium. Cells were centrifuged for four minutes at 420 rpm (50 g). After removing the supernatant, the pellet was re-suspended in warm DMEM medium. Cell density was counted by a hemacytometer.
The assay was carried out in 96-well microtiter plates. Compound 5 was incubated for 0, 60, 120, and 180 minutes at 37° C. with hepatocytes. Reaction mixtures (50 μL) contain a final concentration of 1 μM test compound, 0.5 million cells/mL hepatocytes in the DMEM medium. At each of the time points (for example, 0, 1, 2, and 3 hours), 200 μL of quench solution (100% acetonitrile with 0.1% formic acid) with internal standard was transferred to each well. Midazolam was included as a positive control to verify assay performance. Plates were sealed and centrifuged at 4° C. for 15 minutes at 4000 rpm. The supernatant was transferred to fresh plates for LC/MS/MS analysis.
All samples were analyzed on LC/MS/MS using an AB Sciex API 4000 instrument, coupled to a Shimadzu LC-20AD LC Pump system. Analytical samples were separated using a Waters Atlantis T3 dC18 reverse phase HPLC column (20 mm×2.1 mm) at a flow rate of […]. The mobile phase consists of 0.1% formic acid in water (solvent A) and 0.1% formic acid in 100% acetonitrile (solvent B).
The extent of metabolism was calculated as the disappearance of the test compound, compared to the 0-min control reaction incubations. Initial rates are calculated for the compound concentration and used to determine t½ values and subsequently, the intrinsic clearance, CLint=(0.693)(1/t½ (min))(mL incubation/million cells).

SMILES | metabolic stability compared to the corresponding amide compound
CNc1cc(Nc2cc(F)cc3c2OCCO3)nc2c(NC(=O)N[C@@H]3C[C@@H]3F)cnn12 [Compound 5, 1-(5-((7-fluoro-2,3-dihydrobenzo[b][1,4]dioxin-5-yl)amino)-7-(methylamino)pyrazolo[1,5-a]pyrimidin-3-yl)-3-((1R,2S)-2-fluorocyclopropyl)urea] | unexpected high metabolic stability

Same assay, conditions: human; Table 3 of Example 15: 1 μM test compound, 0.5 million cells/mL hepatocytes, 37° C.

SMILES | half-life at 1 μM
CNc1cc(Nc2cc(F)cc3c2OCCO3)nc2c(NC(=O)N[C@@H]3C[C@@H]3F)cnn12 [drawing 293] | > 6 h
CNc1cc(Nc2cc(F)cc3c2OCCO3)nc2c(C(=O)N[C@@H]3C[C@@H]3F)cnn12 [drawing 294, reference compound] | < 1.67 h
